According to patent US20020049157A1, “Use of proteasome inhibitors for treating cancer, inflammation, autoimmune disease, graft rejection and septic shock” (priority 1998, published 2002):

Key:
CDK2 = test: Immunoprecipitation kinase assay, CDK2; assay type: cell-based, human; settings: PHA-activated T cells; LAC 10 μM added once at 0 h; at 16 h and more so at 40 h
Method: Tonsillar T cells were activated with PHA (2 μg/ml) for a period as indicated in each graph. LAC (10 μM) was added once at 0 h. The cells were harvested at 16 h, 24 h, or 40 h as indicated. An equal amount of lysate protein ([…]) was precipitated with rabbit anti-CDK4, anti-CDK2 or anti-Cyclin E antisera (2.5 μg Ab/sample). The immune complexes were assayed for their kinase activities using histone H1 as a substrate. (A) CDK4 kinase activity. (B) CDK2 kinase activity. (C) Cyclin E-associated CDK activity. The membrane in (C) was subsequently hybridized with anti-Cyclin E (1 μg/ml) followed by ^125I-protein A for the evaluation of the protein level of Cyclin E.
Therefore, the proteasome activity during the early activation stage (0 h-16 h) is essential for the activation of the kinase at the G1 phase and early S phase. The unchanged CDK4 activity in the LAC-treated cells at 40 h served as an internal control for the repressed CDK2 activity and indicating the latter was not due to the viability problem.
Lymphocytes were lysed by a lysis buffer as used in the immunoblotting (Chen et al., 1996, supra), and cleared lysates were quantitated for their protein content. […] The proteins were then transferred to PVDF membranes and the signals were detected by autoradiography.

Bcl-xL = test: Immunoblotting of Bcl-xL in Bcl-xL transfected Namalwa cells; assay type: cell-based, human; settings: lactacystin 6 μM; 6 h
Method: Jurkat cells, wild type Namalwa cells and Bcl-xL transfected Namalwa cells were treated with medium (lanes 1), staurosporine (0.3 μM, lanes 2) and lactacystin (6 μM, lanes 3) for 6 H. The proteins from the mitochondrial fraction of these cells were analyzed by immunoblotting and the amount of Bik, Bcl-xL, Bax, and Bak evaluated. The same membranes were used sequentially and probed with different antibodies against these factors. A nonspecific band recognized by a monoclonal antibody against cytochrome […] (COX) was used as control for even sample loading in the lanes.

cyclin A = test: Immunoblotting of cyclin A level in T cells; assay type: cell-based, human; settings: PHA plus hydroxyurea block, released; LAC added at release
Method: Tonsillar T cells were stimulated with PHA (2 μg/ml) for 40 h in the presence of hydroxyurea (1 mM), and these cells were blocked at the G1/S boundary (G1 block). The synchronization was released by washing out hydroxyurea, and the cells were recultured in medium containing 2 μg/ml PHA in the absence or presence of LAC ([…], added once at the time of the release). The cells were harvested at 6 h and 22 h post the G1/S block. The cell lysates (40 μg/sample) were resolved in 10% SDS-PAGE, and transferred to PVDF membranes. The membranes were hybridized with rabbit-anti-Cyclin E or anticyclin A antisera followed by ^125I-protein A. The Cyclin E level (FIG. 8A) and cyclin A level (FIG. 8B) of representative experiments are shown. Similar results were obtained in a total of three independent experiments.
The G1/S phase synchronized T cells represented activated cells, and prolonged exposure to LAC would cause significant cell death.
Tonsillar T cells were cultured in the presence of 2 μg/ml PHA and 1 mM hydroxyurea for 40 h. The cells thus treated were synchronized at the G1/S phase. […]
Immunoblotting was employed to evaluate the levels of Cyclin E, cyclin A, p21^Cip1 and p27^Kip1. […] The cleared lysates were quantitated for protein concentrations. […] The signals on the membrane were detected by [^125I]-protein A followed by autoradiography.

[1] = Activity of LAC in culture supernatants / medium over time; assay type: physicochemical; settings: for inhibitory activity of LAC-conditioned media on proteasome activity of fresh Jurkat cells: LAC 6 μM
Method: C. The activity of LAC in culture supernatants is short-lived LAC (6 μM) was added to Jurkat cell culture (0.5×10^6 cells/ml). The supernatants were harvested at 4 h, 6 h, 16 h and 24 h. These conditioned media were used to culture fresh Jurkat cells for 3 h. The cells were then harvested and assayed for the proteasome activity as described in FIG. 4B. Samples were in duplicates.
We also investigated whether LAC was stable in the culture supernatant. LAC (6 μM) was added to Jurkat cells culture for 4 h, 6 h, 16 h or 24 h. The conditioned medium was harvested and used to treat fresh Jurkat cells for 3 h, and then the proteasome activity in the lysates of the fresh Jurkat cells was assayed. […] The loss of LAC activity in the 16 h and 24 h conditioned medium is unlikely due to trapping of LAC by proteasomes released by dead Jurkat cells, because LAC could rapidly enter the live cells and the equilibrium of the LAC concentration between both sides of the cytoplasmic membrane should be established very fast. Thus, the proteasomes whether released or not should not make a difference in terms of trapping LAC. Besides, we have also noticed that LAC kept in cell free culture medium at 4° C. would lose its activity within 24 h (data not shown).

CDK2 kinase activity (CDK2): significantly inhibited
inhibitory activity of LAC-conditioned media on proteasome activity of fresh Jurkat cells ([1]; media conditioned 16 h and 24 h): lost their inhibitory effect
time in which LAC loses its activity ([1]; cell free culture medium at 4° C., data not shown): ≤ 24 h
SMILES: CC(=O)N[C@@H](CSC(=O)[C@]1([C@@H](O)C(C)C)NC(=O)[C@H](C)[C@@H]1O)C(=O)O [LAC, lactacystin]
Bcl-xL level in transfected Namalwa cells (Bcl-xL): accumulation of Bcl-xL
cyclin A level during the S phase (cyclin A): did not affect the level
inhibitory activity of LAC-conditioned media on proteasome activity of fresh Jurkat cells ([1]; media conditioned up to 6 h): could still actively inhibit the enzymatic activity
